melting point: 190 to 192 °C
SMILES: CNC1CC(C)(C)Oc2cc3c(cc21)C(c1cccc(Cl)c1)CC(C)(C)O3 (stereo not shown) [Example 4, 6-(3-chlorophenyl)-3,4,7,8-tetrahydro-N-methyl-2,2,8,8-tetramethyl-2H,6H-benzo[1,2-b:5,4-b′]dipyran-4-amine]

Reference: patent US6506790B1, “Compounds and methods” (SmithKline Beecham Corporation, priority 1999, dated 2003)
